In the data set the test system is rats. The data set can be described thus: 4 hour acute inhalation toxicity in rats. Type of data set: in vivo. As to conditions: rats dosed at 10,000 or 619 ppm vol/vol in air for 4 hours, 14 day post-dose monitoring; LC-50 estimated, interpreted as highest exposure level tested. How it is done: The 4 hour acute inhalation toxicity of Example 3 and CE2 in rats was determined by dosing animals at 10,000 or 619 ppm vol/vol in air (per Table 4) for 4 hours followed by 14 day post-dose monitoring. Based on the animal test results and the vapor concentration of the test compound, the LC-50 values were estimated. The NOEL (No Effect Level) value of CE3 was obtained from du Pont de Nemours trade literature. The 4 hr inhalation LC-50 value for CE4 was obtained from Solvay MSDS.

Molecules are shown by their SMILES. Some results are limits rather than exact numbers.

The values that follow come from patent US10662359B2, “Heat transfer fluids and methods of using same” (3M INNOVATIVE PROPERTIES COMPANY, priority 2017, dated 2020).

With `FC(=C(C(F)(F)F)C(F)(F)C(F)(F)C(F)(F)F)C(F)(C(F)(F)F)C(F)(F)F` [Example 3, 1,1,1,2,3,5,5,6,6,7,7,7-dodecafluoro-2,4-bis(trifluoromethyl)hept-3-ene], the “LC-50 (4 hr Inhalation in Rats)” value is >10,000 ppmv.
